SMILES strings stand for the structures.

The nature of data set [1]: Dog Hepatocyte Stability Assay. In kind it is in vitro ADME. Particulars: beagle, cryopreserved hepatocytes. The method, then: (§1) The metabolic stability of Compound 1 was evaluated using cryopreserved hepatocytes from mice, rats, dogs, cynomolgus monkeys, and humans.
(§2) 50 μL of 1 mM intermediate solutions for each test compound was prepared by adding 5 μL of 10 mM stock solution to 45 μL of a 1:1 mixture of water and acetonitrile. A 2 μM working stocks for each test compound were prepared in incubation media, InvitroGRO™ KHB (Bio IVT, Westbury, NY, USA), by adding 2 μL of 1 mM intermediate stock to 998 μL of incubation media.
(§3) To thaw the hepatocytes, InvitroGRO™ HT thawing medium (BioIVT, Westbury, NY, USA) was prewarmed to 37° C., and 48 mL of warmed thawing medium was transferred to a sterile 50 mL conical tube. The hepatocyte vial was removed from the liquid nitrogen Dewar, and gently thawed in a water bath at 37° C. for 1-2 minutes, then the contents of the vial were emptied into a conical tube with prewarmed InvitroGRO HT medium. 1 mL of prewarmed InvitroGRO HT medium was added to each emptied hepatocyte vial to resuspend any remaining cells, and the contents were pipetted into the hepatocyte suspension. The tube containing the hepatocyte suspension was centrifuged at 50*g for 5 minutes. The supernatant was removed carefully, and the remaining pellet was resuspended by adding 1 mL of incubation media, InvitroGRO KHB, and gently shaking until there were no clumps.
(§4) Cell viability was determined using the trypan blue method. 25 μL of hepatocyte cell suspension was added to a trypan blue (TB) solution (containing 775 μL InvitroGRO KHB and 200 μL of Trypan Blue). Cell count was taken using a hemacytometer.
(§5) For mouse hepatocytes, 200 μL of hepatocytes (0.8×10^6 cells/mL) were added to the wells of a 48 well plate (Catalog No. 92048, TPP Techno Plastic Products AG, Trasadingen, Switzerland) and pre-incubated for 30 minutes at 37° C. For rat, dog, monkey, […], 200 μL of hepatocytes (2×10^6 cells/mL) were added to the wells of a 48 well plate (Catalog No. 92048, TPP Techno Plastic Products AG, Trasadingen, Switzerland) and pre-incubated for 30 minutes at 37° C.
(§6) For all species of hepatocytes, once the pre-incubation period was complete, 200 μL of 2 μM working stock of test compound was added to the wells of the plate, and the plate was vortexed on a Vibramax™ 100 (P/N 544-21200-00, Heidolph Instruments GmbH & Co. KG, Schwabach, Germany) at 500 rpm in a 37° C. CO2 incubator (Model No. 51026280, ThermoFisher Scientific, Waltham, MA, USA). At each time point of 0, 15, 30, 60, 90, and 120 minutes, 50 μL of incubation mixture was precipitated with 200 μL of acetonitrile containing internal standard.
(§7) At the end of the experiment, the samples were centrifuged at 4000 rpm for 10 minutes. […]

Data set [2] deals with cryopreserved hepatocytes from beagle dogs. In words: Dog Hepatocyte Stability Assay. In kind it is in vitro ADME. The procedure:
as §1, §2, §3, §4, §5, §6, §7

Data set [3] in a line: Crystallization under nitrogen flow by fast evaporation. In kind it is physicochemical. The method, then:
Based on approximate solubility results, about 10 mg of Compound 1 free form Pattern E was dissolved in suitable amount of solvents. […] Solid residues were examined for their polymorphic form.

Data set [4] is described as follows: Crystallization by heat-cool DSC. The class given is physicochemical. The following applies: Cycle 2: 30 to 180° C. at 10° C./min; 180 to −20° C. at 2° C./min; re-heat to 250° C. at 10° C./min. The method, then:
Polymorphic behavior of Compound 1 free form was investigated by two different heat-cool DSC cycles using free form Pattern E. A Tzero pan and a Tzero hermetic lid with a pin hole were used for this experiment. Cycle 1: 30° C. to 180° C. at 10° C./min; 180° C. to −20° C. at 20° C./min; reheat to 250° C. at 10° C./min. Cycle 2: 30° C. to 180° C. at 10° C./min; 180° C. to −20° C. at 2° C./min; reheat to 250° C. at 10° C./min.

By half-life is commonly meant the time needed for the level to fall by half in the phase considered. Take `COc1cc(-c2cn(C)c(=O)c(C)c2C)cc(OC)c1CN1CC[C@H](N2CCN(c3ccc(N[C@H]4CCC(=O)NC4=O)cc3F)CC2)C(F)(F)C1` [Compound 1, (S)-3-((4-(4-((S)-1-(2,6-dimethoxy-4-(1,4,5-trimethyl-6-oxo-1,6-dihydropyridin-3-yl)benzyl)-3,3-difluoropiperidin-4-yl)piperazin-1-yl)-3-fluorophenyl)amino)-piperidine-2,6-dione]: the half-life at 1 µM in data set [1] was > 2 h. Further, the hepatocyte CLint at 1 µM in data set [1] (read-out: CL int cells) stood at 1.49 µL/min/1e6 cells. In addition, the “CLh int in vivo” value in data set [2] turned out to be 11.48 mL/min/Kg body wt. The “CLhb scaled well stirred” value in data set [2] turned out to be 8.6 mL/min/kg body wt. Besides, the Comments entry in data set [3] (fast evaporation under nitrogen flow, 1,4-dioxane) is given as “Gel-like sample”; in data set [3] (fast evaporation under nitrogen flow, 2-MeTHF), “Gel-like sample”; in data set [3] (fast evaporation under nitrogen flow, Acetone), “Gel-like sample”; in data set [3] (fast evaporation under nitrogen flow, DCM), “Gel-like sample”; in data set [3] (fast evaporation under nitrogen flow, Ethanol) it was “Gel-like sample”; in data set [3] (fast evaporation under nitrogen flow, Ethyl acetate), “Gel-like sample”. Also, the Comments result in data set [3] (fast evaporation under nitrogen flow, THF) is on record as “Gel-like sample”. Further, in data set [3] (fast evaporation under nitrogen flow, Acetonitrile), the XRPD result is on record as “Pattern B”. Moreover, in data set [4], the “Thermal events: Glass transition” value is “Glass transition: 135.7° C.; Delta Cp:”.

Source of the values: patent publication US20240245677A1, “SELECTED COMPOUNDS FOR TARGETED DEGRADATION OF BRD9” (C4 THERAPEUTICS, INC., priority 2021, published 2024).
